Experimental data from US12534444B2, “Treatment of cancer/inhibition of metastasis” (Celex Oncology Innovations Limited, priority 2010, dated 2026).

Tested on: MDA-MB-231 cells
Assay: Single-cell adhesion assay (SCAMA, detachment negative pressure)
Type: cell-based, human
Settings: 24 hours
Method: FIG. 4 is a schematic illustration of the single-cell adhesion measurement apparatus (SCAMA) first described in the paper by Palmer et al. (2008). Human breast cancer cells from the MDA-MB-231 cell line were plated at a density of 2.5×10^4 cells/ml and left to settle in a cell culture dish 401 for 48 hours prior to measurements. Medium was removed and 2 ml of the drug under study was applied for 10 minutes. Adhesion was measured using a glass micropipette 402 connected to a vacuum pump 403 via plastic tubing 404. The tip of the micropipette was drawn to about 20 μm (range, 17-24 μm) tip diameter. The vacuum pump was used to create negative pressure inside a reservoir 405 so that the negative pressure could be applied to the tip of the micropipette by pressing the thumb to the open end of a sealable T-piece 406. […] The pressure was measured using a digital manometer 409 connected to a computer 410 via a RS232 cable 411. Using a micromanipulator 412, the micropipette 402 was positioned on the periphery of a single cell. […] The negative pressure required to detach the cell was recorded on the computer as a pressure spike. The peak of the spike (“detachment negative pressure” (DNP)) was used as a measure of the cell's adhesiveness. Using this technique, several recordings could be made from a single dish within minutes. […] In order to test for the reversibility of a given effect, the pharmacological agent was washed off, fresh medium was added and the plate was incubated for a further 10 minutes prior to re-measurement. Each treatment was carried out on at least two dishes of cells, at least 100 cells per dish were measured, and the experiment was repeated three times (with corresponding controls). In the single cell adhesion experiments, hypoxia was induced chemically by application of hydrogen peroxide (1-500 μM) for 24 hours.

SMILES: OO [hydrogen peroxide]
- mean detachment negative pressure (ΔDNP versus untreated control) (hydrogen peroxide 1 μM): approximately −9%
- mean detachment negative pressure (ΔDNP versus untreated control) (hydrogen peroxide 10 μM): approximately −14%
- mean detachment negative pressure (ΔDNP versus untreated control) (hydrogen peroxide 100 μM): approximately −20%
